# Patent US20040106804A1 (RICHTER GEDEON VEGYESZETI GYAR RT., priority 2001, published 2004)
# Details: speed depends on the conditions of the dehydration
compound,measurement,value
"OC(Cn1cncn1)(Cn1cncn1)c1ccc(F)cc1F [monohydrate, 2-(2,4-Difluorophenyl)-1,3-bis(1,2,4-triazole-1-yl)-propane-2-ol Monohydrate]","temperature at which the monohydrate is transformed into anhydrous fluconazole (""anhydrate"")",40-90 °C
